From patent US8546377B2 (AbbVie Inc., priority 2009, dated 2013) come the findings set out here.

The target in assay [1] is T1, 5HT2B receptors (Homo sapiens, UniProt P41595).
T1 construct: expressed in transfected cells; host or cells: CHO-K1 cells
The assay can be described thus: Human 5-HT2B functional assay in CHO-K1 cells (calcium flux, FLIPR). The assay is classed as cell-based. In outline:
(§1)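 Frozen CHO-K1 cells over-expressing receptor, serum-starved overnight, loaded with Ca4 dye plus 2.5 mM probenecid for 60 min at room temperature. FLIPR fluorescence (ex 480/em 530 nm, 25° C) recorded 3 min after compound addition; 6-point 1:10 series from 10 μM, 0.2% DMSO. Response normalized to serotonin, 4-parameter fit gives EC50; Emax as % of serotonin.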

Assay [2] concerns spontaneous activity. The assay can be described thus: Spontaneous activity in mice. The following applies: vehicle or a dose of test compound, FIG. 2b, FIG. 3b. It is filed as in vivo.
In assay [3] the target is T2, 5HT2C receptors (Homo sapiens, UniProt P28335).
T2 sequence (P28335 33-458): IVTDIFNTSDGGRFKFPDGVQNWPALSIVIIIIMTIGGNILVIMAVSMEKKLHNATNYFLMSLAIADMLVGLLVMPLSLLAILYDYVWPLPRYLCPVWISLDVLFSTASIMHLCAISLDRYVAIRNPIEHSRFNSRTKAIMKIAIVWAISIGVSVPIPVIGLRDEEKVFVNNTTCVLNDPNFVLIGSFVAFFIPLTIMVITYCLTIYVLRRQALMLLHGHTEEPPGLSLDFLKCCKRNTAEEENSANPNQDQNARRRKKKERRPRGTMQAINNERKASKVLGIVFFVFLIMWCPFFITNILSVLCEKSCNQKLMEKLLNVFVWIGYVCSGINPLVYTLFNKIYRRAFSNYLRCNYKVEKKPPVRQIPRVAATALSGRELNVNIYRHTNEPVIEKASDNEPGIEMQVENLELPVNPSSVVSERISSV
In words: Human 5-HT2C functional assay in CHO-K1 cells (calcium flux, FLIPR). It is filed as cell-based. Also noted: expressed in transfected cells; host or cells: CHO-K1 cells. The following applies: for Emax: percentage relative to the effect of serotonin. The procedure, abridged:
as §1

The subject of assay [4] is AMP-induced hyperactivity. The assay can be described thus: d-Amphetamine-induced hyperlocomotion in mice. It is filed as in vivo. From the text: (§2) (v) Assessment of Effects on Psychostimulant-Induced Hyperlocomotion in Mice
In both humans and experimental animals amphetamine profoundly affects motor activity, sensorimotor function, sleep, attention, aggressive and sexual behaviors, learning and memory, operant behaviors, appetite and food intake. In addition, amphetamine induces psychotic reactions in normal individuals and exacerbates symptoms of schizophrenia in patients. In experimental animals several distinct behaviors are considered to be correlates of amphetamine psychosis. For example, amphetamine-induced hyperactivity in rodents is believed to model the psychotic symptoms of schizophrenia. Reversal of these behaviors is used to predict potential antipsychotic activity of drugs in pre-clinical studies.
(§3) Male NMRI mice (5-week old, Janvier, France) or C57BL/6J mice (6-week old, Janvier, France) were group housed and allowed ad-libitum access to food and water. A 12 hour light/dark cycle was imposed with lights-on period between 0530 and 1730 hours. All testing occurred between 700 and 1300 hours. All procedures were approved by Abbott Institutional Animal Care and Use Committee (USA) or Animal Welfare Officer (Germany) and were conducted in accordance with the National Institutes of Health Guide for Care and Use of Laboratory Animals guidelines and applicable national laws in the facilities accredited by the Association for the Assessment and Accreditation of Laboratory Animal Care.
On the day of experiment, animals were brought from the animal facility into the experimental room and were allowed to acclimatize for at least 30 minutes. Animals were then placed in the test cages for a habituation period of 60 minutes. The animals were then injected ip with the test compound and returned to the test cage. 30 Minutes later, the mice were injected with d-amphetamine (2.0 mg/kg, AMP, Sigma, #A5880, sc) or phencyclidine (2.0 mg/kg, PCP, Sigma, #P3029, sc), and returned to the test cages for 90 minutes. […] The analyzed data were: fine movements, ambulations and total movements (fine+ambulations). […]

Assay [5] deals with T3, human serotonin 5-HT2c receptor (Homo sapiens, UniProt P28335).
T3 construct: expressed in transfected cells; host or cells: CHO cells (membrane homogenate)
T3 sequence (P28335 33-458): T2 sequence (P28335 33-458)
In words: Human 5-HT2C receptor radioligand binding assay (agonist site, [125I](±)DOI). As to conditions: membranes of transfected CHO cells, 0.2 nM [125I](±)DOI, 15 minutes at 37° C. In outline: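 Affinity for the agonist site measured by radioligand binding in transfected CHO cells expressing the human receptor, using [125I](±)DOI.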

The test system of assay [6] is PCP-induced hyperactivity. The assay can be described thus: Phencyclidine (PCP)-induced hyperlocomotion in mice. The assay is classed as in vivo. The following applies: test compound ip 30 minutes before phencyclidine 2.0 mg/kg sc, FIG. 4. As to the method:
as §2
In humans, phencyclidine (PCP) is known to produce a syndrome of behavioral effects which have many characteristics in common with schizophrenia. Therefore, antagonism of PCP effects might be evidence for antipsychotic efficacy of a compound.
as §3
On the day of experiment, animals were brought from the animal facility into the experimental room and were allowed to acclimatize for at least 30 minutes. Animals were then placed in the test cages for a habituation period of 60 minutes. […] The analyzed data were: fine movements, ambulations and total movements (fine+ambulations). […]

Assay [7] addresses T2, 5HT2C receptors. The assay can be described thus: Human 5-HT2C functional assay in 1321N1 cells (intracellular calcium, FLIPR). Also noted: expressed in transfected cells; host or cells: 1321N1 cells. The assay is classed as cell-based. In outline:
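Intracellular calcium in 1321N1 cells stably transfected with human 5-HT2C, serum-starved overnight, Fluo4 AM-loaded with 1% probenecid. Compounds at 10^−10 to 10^−5 M final, alone or with 10^−9 M serotonin; peak FLIPR response. EC50 from four-parameter logistic fit; Emax as % of serotonin effect.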

Entries after “also recorded” stand apart in the source; their conditions may differ. Where two headings read alike, the source gives them in different places. Bounds are passed on as bounds.

T1 sequence (P41595 whole entry): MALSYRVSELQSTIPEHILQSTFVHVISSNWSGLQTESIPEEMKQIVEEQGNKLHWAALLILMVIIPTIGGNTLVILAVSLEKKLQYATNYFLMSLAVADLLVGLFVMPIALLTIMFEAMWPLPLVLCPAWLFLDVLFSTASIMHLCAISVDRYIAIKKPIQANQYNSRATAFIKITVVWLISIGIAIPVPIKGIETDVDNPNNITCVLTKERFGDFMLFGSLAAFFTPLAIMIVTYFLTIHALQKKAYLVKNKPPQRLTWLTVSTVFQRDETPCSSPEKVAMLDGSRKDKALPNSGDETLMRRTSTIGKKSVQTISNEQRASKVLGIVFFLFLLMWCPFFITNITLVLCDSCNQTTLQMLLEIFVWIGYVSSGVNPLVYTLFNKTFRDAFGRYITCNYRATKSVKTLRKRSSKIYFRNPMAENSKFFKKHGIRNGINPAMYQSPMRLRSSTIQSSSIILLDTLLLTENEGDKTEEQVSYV

As for `c1ccc2c(c1)OCC[C@H]1CNCCN21` [Example 169, (4aS)-2,3,4,4a,5,6-hexahydro-1H-pyrazino[2,1-d][1,5]benzoxazepine], the figures for the EC50 in assay [1] and in assay [3] were above 10 µM and 0.001 µM, respectively. Further, the “spontaneous activity (total activity counts)” value in assay [2] was “no effects; also recorded: No change in spontaneous activity regardless of dose”. Besides, the maximal response (Emax) in assay [3] (CHO-K1, read-out: Emax (%), 5-HT2c Agonist Activity, CHO-K1 cells) was above 120%. Also, in assay [4] (10 and 30 mg/kg ip before d-amphetamine 2.0 mg/kg sc, FIG. 3a), the AMP-induced hyperactivity entry is “attenuated AMP-induced hyperactivity significantly and in a dose dependent manner; also recorded: concentration-dependent effects of Example 169 attenuating the affect of d-amphetamine”.

Consider `O=C1C[C@H]2CNCCN2c2ccccc2N1` [Example 2, (4aS)-1,2,3,4,4a,5-hexahydropyrazino[1,2-a][1,5]benzodiazepin-6(7H)-one], for which, in assay [5], the Ki was determined as 0.016 µM. Besides, in assay [6], the PCP-induced hyperactivity result is “attenuated PCP-induced hyperactivity significantly and in a dose dependent manner; also recorded: concentration-dependent effects of Example 2 attenuating the affect of phencyclidine (PCP)”. Moreover, in assay [7] (1321N1 cells stably transfected, maximum calcium response, read-out: EC50 (μM), 5-HT2c Agonist Activity), the EC50 was 0.0192 µM. For the same compound, the Emax in assay [7] (1321N1 cells, percentage relative to the effect of serotonin, read-out: Emax (%), 5-HT2c Agonist Activity) was found to be 90%.

As to `CCOc1ccc2c(c1)N1CCNC[C@@H]1CC(=O)N2` [Example 181, (4aS)-10-ethoxy-1,2,3,4,4a,5-hexahydropyrazino[1,2-a][1,5]benzodiazepin-6(7H)-one], the EC50 in assay [1] (CHO-K1 cells over-expressing 5HT2B, calcium flux, read-out: EC50 (μM), 5-HT2B Agonist Activity) is above 10 µM; in assay [3] (CHO-K1 cells over-expressing 5HT2C, calcium flux, read-out: EC50 (μM), 5-HT2c Agonist Activity) it was 0.02 µM. Further, the “spontaneous activity (total activity counts)” value in assay [2] was “no effects; also recorded: No change in spontaneous activity regardless of dose”. Also, the Emax in assay [3] (CHO-K1 cells, read-out: Emax (%), 5-HT2c Agonist Activity) is above 120%. Also, the AMP-induced hyperactivity result in assay [4] (1.0 and 3.0 mg/kg ip before d-amphetamine 2.0 mg/kg sc, FIG. 2a) is “attenuated AMP-induced hyperactivity significantly and in a dose dependent manner; also recorded: concentration-dependent effects of Example 181 attenuating the affect of d-amphetamine”.
